Laboratory results as given in publication PMC7217877, “N-AS-triggered SPMs are direct regulators of microglia in a model of Alzheimer’s disease” (Nature Communications, 2020).
Several values for one entry are separate records, joined by “and”; a condition that tells them apart may be missing. Equal values may be shown once.

Assays:
APP/PS1 mice = experiment: Aβ in Lamp1+ phagolysosomes of microglia (Supplementary Fig 5a); format: in vivo, mouse; details: N-AS vs vehicle APP/PS1
Procedure: Thioflavin S (Sigma-Aldrich) staining was carried out according to previously described procedures. We used 6E10 (mouse, 1:100, Signet, SIG39300), anti-20G10 (mouse, 1:1000, provided by D. R. Howlett, GlaxoSmithKline, Harlow, Essex, UK) for Aβ42, anti-G30 (rabbit, 1:1000, provided by D. R. Howlett) for Aβ40, SMA (mouse, 1:400, Sigma-Aldrich, A2547), AT8 (mouse, 1:500, Thermo Fisher Scientific, MN1020), Caspase-3 (mouse, 1:200, Novus Biologicals, NB100-56708), ac-S565 (rabbit, 1:100), COX2 (mouse, 1:250, Thermo Fisher Scientific, 35-8200), Iba1 (rabbit, 1:500, Wako, 019-19941 and goat, Abcam, ab5076), NeuN (mouse, 1:500, Millipore, MAB177), GFAP (rabbit, 1:500, Dako, N1506 and chicken, 1:500, Abcam, ab4674), and Lamp1 (mouse, 1:200, Abcam, ab24170). The sections were analyzed with a laser-scanning confocal microscope (FV3000; Olympus) or with a BX51 microscope (Olympus). MetaMorph software (Molecular Devices) was used to quantification. Three-dimensional reconstruction of microglia was recorded and analyzed using IMARIS software (Bitplane)[11]. For the analysis of age-dependent microglial COX2^+ CX3CR1^+ cells in WT and APP/PS1 mice, COX2 (rabbit, 1:100, Abcam, ab15191) and CX3CR1 (mouse, 1:100, BioLegend, 149008) antibody were used and the images were acquired on Alexa 488 and APC Channel with performed using Operetta CLS and Analysis Software 4.5 (Perkin-Elmer). […]

microglia = experiment: N-AS generation in primary cultured cells (LC-MS/MS); format: cell-based, C57BL/6 mice; parameters: dose or concentration left out as unconfirmed; details: Ab, replicates
Procedure: (§1) Reactions were quenched by adding equal volume of cold methanol. A 100 μl aliquot of the reaction mixture was mixed with 30 μl of distilled water containing 5 ng ml^−1 of furosemide (internal standard) for 1 min and vigorously mixed with […] of ethyl acetate for 20 min. After centrifugation at 16,000×g for 10 min, the mixtures were kept for 2 h for freezing aqueous phase. The upper ethyl acetate layer was transferred to a clean tube and evaporated to dryness under a gentle stream of nitrogen. Then, the dried extract was reconstituted in 100 µl of mobile phase and 10 µl aliquot of the solution was injected into an Agilent 6470 Triple Quad LC–MS/MS system (Agilent, Wilmington, DE) coupled with an Agilent 1260 HPLC system. […] Quantification was carried out using multiple reaction monitoring (MRM) at m/z 340.3→263.3 for N-AS and m/z 328.9→284.8 for furosemide (internal standard) in negative ionization mode and collision energy of 20 eV. […]
(§2) To confirm the generation and roles of N-AS in neurons, cells from E18 C57BL/6 mice were prepared as previously described. […] Aβ 1–42 (10 μM, 24 h, Invitrogen, 03112) was exposed to neurons and the cells were analyzed for the generation and roles of N-AS. […]

astrocyte = experiment: as above; format: cell-based, C57BL/6 mice; parameters: dose or concentration left out as unconfirmed; details: Ab, replicates
Procedure: as §1, §2

| Compound | microglia containing co-stained lysosomes and Aβ (APP/PS1 mice) | N-AS quantification (Fig 3a) (microglia) | N-AS quantification (Fig 3a) (astrocyte) |
| --- | --- | --- | --- |
| CCCCCCCCCCCCC/C=C/[C@@H](O)[C@H](CO)NC(C)=O [N-AS, N-((2S,3R,E)-1,3-Dihydroxyoctadec-4-en-2-yl)acetamide] | increased number of microglia containing co-stained lysosomes and Aβ | – | – |
| Ab: Aβ 1–42 (Invitrogen, 03112) used to induce an AD environment in cells | – | 1.15 and 1.365 and 1.237 and 1.2575 and 1.301 and 1.247 | 0.05349 and 0.0246 and 0.05789 and 0.03905 and 0.04125 and 0.04847 |
